Values after ≈ are worked out from the molar mass of the structure shown. Where two headings read alike, the source gives them in different places.
What was measured:
[1] = Chrom Log D pH7.4; format: physicochemical; conditions: for ChromLogDpH7.4: pH 7.4; for ChromLogD: supplement sheet
Description: This assay was conducted as previously described.[11]

[2] = test system: THP-1 cells; assay: THP-1 host cell toxicity readout of the intramacrophage assay; format: cell-based, human; conditions: for THP-1 (pEC50): human THP-1 host cells; for IC50: Homo sapiens
Description: (§1) This assay was conducted as previously described,[8] except for compound exposure time, which was 96 h instead of 72 h.

[3] = Kinetic aqueous solubility; format: physicochemical; conditions: kinetic; read-out: Aq Solubility (kinetic aqueous solubility)
Description: (§2) These assays were conducted as previously described.[23]

[4] = Mouse liver microsomal intrinsic clearance; format: in vitro ADME; conditions: for Cli (mouse liver microsomal intrinsic clearance): mouse liver microsomes; for Cli (mouse, ml/min/g): supplement sheet
Description: as §2

[5] = test system: L. donovani amastigotes; assay: Intramacrophage L. donovani assay (Ld InMac); format: cell-based, Leishmania donovani; conditions: for Ld InMac (pEC50) / EC50: L. donovani amastigotes in THP-1 cells, 96 h compound exposure; for EC50 / IC50: Leishmania donovani; for EC50: THP-1, 96 h, read-out: Ld InMac (pEC50) (converted); for IC50: read-out: LdInMac pIC50 (converted); for loss in potency compared to 1: Ld InMac
Description: as §1

[6] = THP-1, supplement sheet, read-out: THP1 pIC50 (converted)

Compound | THP-1 (pEC50) [2] | THP1 pIC50 ([2]; supplement sheet) | solubility kinetic [3] [µM] | Cli (mouse liver microsomal intrinsic clearance) [4] [mL/min/g] | Cli (mouse, ml/min/g) [4] [mL/min/g] | LdInMac pIC50 ([5]; supplement sheet) | IC50 [2, 6] [µM] | IC50 ([5]; supplement sheet) [µM] | also measured
2-(8-Hydroxy-7-(3-methyl-1H-1,2,4-triazol-5-yl)-1,6-naphthyridin-5-yl)-1,2-thiazinane 1,1-dioxide [Compound 13] | <4.3 | <4.3 | 250 | 0.6 | 0.6 | <4.3 | – | – | ChromLogDpH7.4 [1]: 1.5; ChromLogD [1]: 1.5
5-(Dimethylamino)-7-(3-methyl-1H-1,2,4-triazol-5-yl)-1,6-naphthyridin-8-ol [Compound 9] | <4.3 | <4.3 | >250 | 14 | 14 | 4.8 | – | – | ChromLogDpH7.4 [1]: -0.6; ChromLogD [1]: -0.6
7-(3-Methyl-1H-1,2,4-triazol-5-yl)-5-(2-(trifluoromethyl)phenyl)-1,6-naphthyridin-8-ol [Compound 15] | <4.3 | <4.3 | >250 | 1.4 | 1.4 | 7 | – | – | ChromLogDpH7.4 [1]: 4.3; ChromLogD [1]: 4.3; Ld InMac (pEC50) [5]: 7.0
Oc1c(-c2nnc(Cc3ccc(Cl)cc3)[nH]2)ncc2cccnc12 [Compound 1] | – | – | – | – | – | – | 31.6 | 0.316 | EC50 [5]: 0.316 µM; selectivity over the human THP-1 cell line ([5]; parasite vs THP-1 pEC50): ~100 fold
Oc1c(-c2nnc(Cc3ccc(F)cc3)[nH]2)ncc2cccnc12 [Compound 2] | – | – | – | – | – | – | 39.8 | 2.51 | loss in potency compared to 1 [5]: ~10 fold
Oc1c(-c2nc(C(O)c3ccccc3)n[nH]2)ncc2cccnc12 (stereo not shown) [Compound 3, 7-(3-(Hydroxy(phenyl)methyl)-1H-1,2,4-triazol-5-yl)-1,6-naphthyridin-8-ol] | – | – | – | – | – | – | > 50.1 | 5.01 | loss in potency compared to 1 [5]: ~10 fold
Cc1n[nH]c(-c2ncc3cccnc3c2O)n1 [Compound 4, 7-(3-Methyl-1H-1,2,4-triazol-5-yl)-1,6-naphthyridin-8-ol] | – | – | – | – | – | – | > 50.1 | > 50.1 | –
Oc1c(-c2nc(CN3CCOCC3)n[nH]2)ncc2cccnc12 [Compound 5, 7-(3-(Morpholinomethyl)-1H-1,2,4-triazol-5-yl)-1,6-naphthyridin-8-ol] | – | – | – | – | – | – | > 50.1 | 31.6 | EC50 [5]: 31.6 µM
O=C1CCCN1Cc1n[nH]c(-c2ncc3cccnc3c2O)n1 [Compound 6, 1-((5-(8-Hydroxy-1,6-naphthyridin-7-yl)-1H-1,2,4-triazol-3-yl)methyl)pyrrolidin-2-one] | – | – | – | <0.5 | <0.5 | – | > 50.1 | > 50.1 | –
O=C(NCc1ccc(Cl)cc1)c1ncc2cccnc2c1O [Compound 7, N-(4-Chlorobenzyl)-8-hydroxy-1,6-naphthyridine-7-carboxamide] | – | – | – | – | – | – | > 50.1 | 0.501 | EC50 [5]: 0.501 µM
CNc1nc(-c2nc(C)n[nH]2)c(O)c2ncccc12 [Compound 8, 7-(3-Methyl-1H-1,2,4-triazol-5-yl)-5-(methylamino)-1,6-naphthyridin-8-ol] | <4.3 | <4.3 | >250 | 3.1 | 3.1 | <4.3 | – | – | ChromLogDpH7.4 [1]: -0.2; ChromLogD [1]: -0.2
Cc1n[nH]c(-c2nc(NCc3ccc(Cl)cc3)c3cccnc3c2O)n1 [Compound 10, 5-((4-Chlorobenzyl)amino)-7-(3-methyl-1H-1,2,4-triazol-5-yl)-1,6-naphthyridin-8-ol] | <4.3 | <4.3 | 219 (≈ 80.3 µg/mL) | 3.4 | 3.4 | 5.8 | – | – | ChromLogDpH7.4 [1]: 4.4; ChromLogD [1]: 4.4
Cc1n[nH]c(-c2nc(N3CCOCC3)c3cccnc3c2O)n1 [Compound 11, 7-(3-Methyl-1H-1,2,4-triazol-5-yl)-5-morpholino-1,6-naphthyridin-8-ol] | <4.3 | <4.3 | >250 | 3.1 | 3.1 | 5 | – | – | ChromLogDpH7.4 [1]: 1.8; ChromLogD [1]: 1.8
Cc1n[nH]c(-c2nc(N3CCCC3=O)c3cccnc3c2O)n1 [Compound 12, 1-(8-Hydroxy-7-(3-methyl-1H-1,2,4-triazol-5-yl)-1,6-naphthyridin-5-yl)pyrrolidin-2-one] | <4.3 | <4.3 | 109 (≈ 33.8 µg/mL) | <0.5 | <0.5 | <4.3 | – | – | –
Cc1n[nH]c(-c2nc(-c3ccccc3)c3cccnc3c2O)n1 [Compound 14, 7-(3-Methyl-1H-1,2,4-triazol-5-yl)-5-phenyl-1,6-naphthyridin-8-ol] | <4.3 | <4.3 | 160 (≈ 48.5 µg/mL) | 9.4 | 9.4 | 5.9 | – | – | Ld InMac (pEC50) [5]: 5.9
Cc1n[nH]c(-c2cc3ncccc3c(-c3ccccc3)n2)n1 [Compound 17] | – | – | – | – | – | – | > 50.1 | > 50.1 | –
COc1ccccc1-c1nc(-c2nc(C)n[nH]2)c(OC)c2ncccc12 [Compound 18] | – | – | – | – | – | – | > 50.1 | 2.51 | –
COc1ccccc1-c1nc(-c2nnc(C)o2)c(O)c2ncccc12 [Compound 19, 5-(2-Methoxyphenyl)-7-(5-methyl-1,3,4-oxadiazol-2-yl)-1,6-naphthyridin-8-ol] | – | – | – | <0.5 | <0.5 | – | > 50.1 | > 50.1 | –
O=C(NCc1ccc(Cl)cc1)c1ccc2cccnc2c1O [Compound 20] | toxic to the host THP-1 cells | – | – | – | – | – | 6.31 | 15.8 | –
O=C(NCc1ccc(Cl)cc1)c1ncc2ccccc2c1O [Compound 21] | – | – | – | – | – | – | > 50.1 | > 50.1 | –
COc1ccc(CNC(=O)c2nn(C)c3cccnc3c2=O)cc1 [Compound 23, N-(4-Methoxybenzyl)-1-methyl-4-oxo-1,4-dihydropyrido[3,2-c]pyridazine-3-carboxamide] | – | – | – | – | – | – | > 50.1 | > 50.1 | –
Cc1nnc(C(=O)NC(C)(C)c2nc(C(=O)NCc3ccc(F)cc3)c(O)c(=O)n2C)o1 [Compound 24, Raltegravir, reference compound] | – | – | – | – | – | – | – | – | IC50 ([2]; THP-1, read-out: THP1 pIC50 (converted)): > 50.1 µM; IC50 [5]: > 50.1 µM
COc1ccc(CNC(=O)c2ncc3cccnc3c2O)cc1 [Compound 27, 8-Hydroxy-N-(4-methoxybenzyl)-1,6-naphthyridine-7-carboxamide] | – | – | – | – | – | – | > 50.1 | 0.501 | Ld InMac (pEC50) [5]: 6.3; EC50 [5]: < 1 µM
O=C(NCc1ccc(F)cc1)c1nc(N2CCCCS2(=O)=O)c2cccnc2c1O [Compound 30, N-(4-Fluorobenzyl)-5-(1,1-dioxido-1,2-thiazinan-2-yl)-8-hydroxy-1,6-naphthyridine-7-carboxamide, reference compound] | 4.5 | 4.5 | > 250 | 2.0 | 2 | <4.3 | – | – | –
(R)-N-(1-(4-Fluorophenyl)ethyl)-1-methyl-4-oxo-1,4-dihydro-1,5-naphthyridine-3-carboxamide [Compound 22] | <4.3 | <4.3 | >250 | 0.7 | 0.7 | <4.3 | – | – | –
N-(4-Chlorobenzyl)-8-hydroxy-5-morpholino-1,6-naphthyridine-7-carboxamide [Compound 32] | <4.3 | <4.3 | 219 | 24 | 24 | <4.3 | – | – | Ld InMac (pEC50) [5]: <4.3
N-(Cyclopropylmethyl)-8-hydroxy-1,6-naphthyridine-7-carboxamide [Compound 29] | <4.3 | <4.3 | – | 13 | 13 | 5.9 | – | – | ChromLogDpH7.4 [1]: 3.3; ChromLogD [1]: 3.3; Ld InMac (pEC50) [5]: 5.9
N-(Cyclopropylmethyl)-8-hydroxy-5-(2-methoxyphenyl)-1,6-naphthyridine-7-carboxamide [Compound 33] | <4.3 | <4.3 | >250 | 8 | 8 | 5.7 | – | – | Ld InMac (pEC50) [5]: 5.7

Reference: article PMC7748245, “Identification and Optimization of a Series of 8-Hydroxy Naphthyridines with Potent In Vitro Antileishmanial Activity: Initial SAR and Assessment of In Vivo Activity” (Journal of Medicinal Chemistry, 2020)
